This is an account of results in paper PMC4813125, “Identification of Human UDP-Glucuronosyltransferase 1A4 as the Major Isozyme Responsible for the Glucuronidation of 20(S)-Protopanaxadiol in Human Liver Microsomes” (International Journal of Molecular Sciences, 2016).

Series [1] concerns PPD glucuronidation in pooled HLMs. Nature of the series: Chemical inhibition of PPD glucuronidation in pooled HLMs. It counts as in vitro ADME, human. As to conditions: PPD 50 μM; for inhibition of PPD glucuronidation (in words): inhibitor 5, 50, and 200 μM. As for the experimental part: Fluconazole, androsterone, estradiol, and hecogenin [25, 34] were used to inhibit their potential inhibitory effects on PPD glucuronidation in pooled HLMs. A set of concentrations (5, 50, and 200 μM) was used for all four inhibitors. The concentration of PPD was set at 50 μM. The reaction time and protein concentration were set at 60 min and 0.5 mg/mL, respectively. All other incubation conditions were the same as those for Glucuronidation of PPD in pooled HLMs described above. The concentration of organic solvent was 1% of the total incubation volume. An experimental group without inhibitors but with solvents was used as the control, in which the activities of PPD glucuronidation were designated as 100%. The activities of PPD glucuronidation in the inhibited samples were compared with the control to evaluate the remaining enzyme activity. For determination of IC50 (representing the concentration that inhibits 50% of the control activity) of hecogenin, experiments with a set of concentrations of hecogenin (1–400 μM) in pooled HLMs were conducted.

For series [2], the system named is pooled human liver microsomes (HLMs). Kind of series: Kinetics of PPD glucuronidation by pooled human liver microsomes. Particulars: formation of PPDG. The series is classed as in vitro ADME. As for the experimental part:
(§1) In vitro PPD glucuronidation was in an incubation volume of 100 μL. Incubation conditions were initially optimized for the linear product formation with respect to protein concentration (0.2–1 mg/mL), and incubation time (15–120 min). The stock solution of PPD was prepared in dimethyl sulfoxide (DMSO), and the final concentration of DMSO in the incubations was 1% (v/v). Briefly, the incubation mixture contained HLMs or RLMs (0.5 mg of protein/mL), UDPGA (2 mM), MgCl2 (4 mM), alamethicin (25 μg/mg protein), PPD (10–500 μM), and Tris–HCl buffer (50 mM, pH 7.4). The mixture was incubated for 5 min at 37 °C, and then the reaction was started by the addition of UDPGA and incubated in a shaking water bath for 60 min. The reaction was terminated by addition of 200 μL of ice-cold acetonitrile containing GRg1 (internal standard (IS), 0.5 μg/mL) and then centrifuged at 15,000× g for 10 min at 4 °C. The supernatant was evaporated to dryness under nitrogen gas at room temperature, and the residue was reconstituted with 200 µL of 20% acetonitrile. After centrifugation at 15,000× g for 10 min at 4 °C, 5 μL of the supernatants was subjected to analysis. Incubations without PPD and UDPGA were served as blank and negative controls, respectively.
(§2) Quantitative analysis was conducted on an Agilent 1290 infinity system (Agilent Technologies, Santa Clara, CA, USA) coupled with an MS/MS detector (6410 B Triple Quad LC/MS; Agilent Technologies) in negative ion mode. The chromatographic separations were performed on an ACQUITY UPLC HSS T3 column (100 mm × 2.1 mm i. d. (inner diameter), 1.8 μm) thermostated at 45 °C. The mobile phase consisted of A (5 mM ammonium acetate in water) and B (acetonitrile) at a flow rate of 0.4 mL/min. The gradient elution program was set as follow: 0–2 min 20%–50% B, 2–4 min 50%–60% B, 4–5 min 60% B and finally, reconditioning the column with 20% B for 1 min. Optimized ion source parameters were set as follows: gas temperature 325 °C; gas flow 10 L/min; nebulizer 35 psi; capillary voltage 3500 V; fragmentor voltage 265 V for PPDG and 215 V for IS; cell accelerator voltage 0 V; dwell time 200 ms. Data were acquired in multiple reaction monitor (MRM) mode for the following transitions: m/z 635.4 to m/z 375.1 for PPDG and m/z 799.5 to m/z 637.6 for IS, with the collision energy being set at 50 and 26 V, respectively.
(§3) All results were obtained from three replicates in different microsomal incubations, and all the data were expressed as mean ± SD. To estimate the kinetic parameters, data were transformed and Eadie–Hofstee curves were plotted, which help to identify kinetic models. […] In addition, CLmax was calculated according to the Equation (2). […]
In general terms: Microsomes from liver hold many membrane-bound enzymes, among them those of drug oxidation.

For series [3], the system named is pooled rat liver microsomes (RLMs). Kind of series: Kinetics of PPD glucuronidation by pooled rat liver microsomes. Particulars: formation of PPDG. It counts as in vitro ADME. As for the experimental part:
as §1, §2, §3

Series [4] deals with T1, human recombinant UGT1A4 (Homo sapiens, UniProt P22310).
T1 sequence (P22310 29-534): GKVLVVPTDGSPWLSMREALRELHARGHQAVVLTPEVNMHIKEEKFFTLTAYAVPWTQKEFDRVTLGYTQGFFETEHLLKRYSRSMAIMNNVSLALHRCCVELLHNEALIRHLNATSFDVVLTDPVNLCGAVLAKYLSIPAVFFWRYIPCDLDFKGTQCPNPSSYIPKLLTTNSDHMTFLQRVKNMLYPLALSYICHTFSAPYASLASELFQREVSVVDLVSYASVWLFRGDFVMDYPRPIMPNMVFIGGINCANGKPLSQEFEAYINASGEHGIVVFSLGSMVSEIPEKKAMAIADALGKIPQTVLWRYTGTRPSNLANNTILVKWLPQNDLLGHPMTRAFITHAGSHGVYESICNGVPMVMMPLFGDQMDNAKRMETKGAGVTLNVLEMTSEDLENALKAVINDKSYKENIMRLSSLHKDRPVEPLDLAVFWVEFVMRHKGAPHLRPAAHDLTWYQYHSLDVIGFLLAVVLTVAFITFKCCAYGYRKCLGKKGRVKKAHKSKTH
Nature of the series: Kinetics of PPD glucuronidation by recombinant UGT1A4. It counts as in vitro ADME. As to conditions: formation of PPDG. As for the experimental part:
(§4) A kinetic study for PPD glucuronidation by human recombinant UGT 1A4 was also conducted by incubating PPD with human recombinant UGT 1A4 at protein concentration of 0.25 mg/mL for 1 h. All other incubation conditions were identical to those of glucuronidation of PPD in pooled HLMs.
(§5) All results were obtained from three replicates in different microsomal incubations, and all the data were expressed as mean ± SD. To estimate the kinetic parameters, data were transformed and Eadie–Hofstee curves were plotted, which help to identify kinetic models. Then kinetic parameters were obtained by fitting velocity data to the sigmoidal kinetic (Hill) model (Equation (1)) using Graph Pad Prism 5.0 software (San Diego, CA, USA). In addition, CLmax was calculated according to the Equation (2). (1) V=Vmax × [S]^n/S50n + [S]^n (2) CLmax = Vmax/S50 × n−1/n(n−1)^1/n
(§6) V is reaction velocity, Vmax is the maximum reaction velocity, [S] is the substrate concentration, S50 is the substrate concentration at 0.5 Vmax (analogous to Km in the Michaelis–Menten equation), n is the Hill coefficient (which reflects the degree of sigmoidicity of the velocity versus substrate-concentration relationship), CLmax is the maximum clearance, which provides an estimate of the highest clearance attained.

For a further series, the target named is T2, human recombinant UGT1A3 (Homo sapiens, UniProt P35503).
T2 construct: purchased BD Gentest
T2 sequence (P35503 29-534): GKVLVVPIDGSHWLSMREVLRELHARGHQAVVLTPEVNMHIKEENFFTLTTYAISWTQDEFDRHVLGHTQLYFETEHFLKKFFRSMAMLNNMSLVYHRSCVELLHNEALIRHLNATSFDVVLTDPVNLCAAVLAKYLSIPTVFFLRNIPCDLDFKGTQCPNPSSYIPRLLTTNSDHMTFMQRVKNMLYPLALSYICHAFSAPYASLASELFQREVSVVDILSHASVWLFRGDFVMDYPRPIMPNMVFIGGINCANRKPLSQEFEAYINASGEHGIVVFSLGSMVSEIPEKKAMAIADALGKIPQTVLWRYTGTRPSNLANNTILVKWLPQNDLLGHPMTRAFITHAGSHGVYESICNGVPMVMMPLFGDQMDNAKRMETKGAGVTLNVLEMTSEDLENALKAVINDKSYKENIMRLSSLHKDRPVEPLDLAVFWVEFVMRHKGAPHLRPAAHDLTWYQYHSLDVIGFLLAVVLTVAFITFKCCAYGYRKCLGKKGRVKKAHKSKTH
Kind of series: PPD glucuronidation with recombinant human UGT1A3. It counts as in vitro ADME. Particulars: UGT1A3 0.25 mg protein/mL. As for the experimental part: (§7) PPD glucuronidation was measured in reaction mixtures containing human recombinant UGT1A1, 1A3, 1A4, 1A6, 1A7, 1A8, 1A9, 1A10, 2B4, 2B7, 2B15, and 2B17. Three substrate concentrations (10, 50, and 200 μM) were used in this study. The incubation conditions were the same as those for Glucuronidation of PPD in pooled HLMs described above except for the protein concentration (0.25 mg/mL).

Series [5] relates to human recombinant UGT1A1, 1A6, 1A7, 1A8, 1A9, 1A10, 2B4, 2B7, 2B15, and 2B17. Kind of series: PPD glucuronidation with other recombinant human UGT isozymes. The series is classed as in vitro ADME. Particulars: PPD 10, 50, and 200 μM, 0.25 mg protein/mL. As for the experimental part:
as §7

Details of series [6]: method as in PMID 23494798. As to conditions: previous studies ref 13; cited from earlier work.
For series [7], the target named is T1, human recombinant UGT1A4. Nature of the series: PPD glucuronidation with recombinant human UGT1A4. The series is classed as in vitro ADME. Further details: purchased BD Gentest. Particulars: UGT1A4 0.25 mg protein/mL. As for the experimental part: as §7
Substrate in series [8]: CC(C)=CCC[C@](C)(O)C1CC[C@]2(C)[C@@H]1[C@H](O)CC1[C@@]3(C)CC[C@H](O)C(C)(C)C3CC[C@]12C
Kind of series: Kinetics of PPD glucuronidation by recombinant UGT1A4. As to conditions: other: formation of PPDG, recombinant UGT1A4, Hill kinetics, 10–500 μM PPD. It counts as in vitro ADME, human. As for the experimental part:
as §4, §5, §6

[9] abbreviates: HLMs, Hill kinetics, 10–500 μM PPD.
The mark [10] stands for this setting: RLMs, Hill kinetics, 10–500 μM PPD.

With `OC(Cn1cncn1)(Cn1cncn1)c1ccc(F)cc1F` [Fluconazole, fluconazole], the “inhibition of PPD glucuronidation (in words)” value (shortened to “inhibition”) in series [1] (pooled HLMs 0.5 mg/mL) is recorded as “no inhibition”.
For `CC(C)=CCC[C@](C)(O)[C@H]1CC[C@]2(C)[C@@H]1[C@H](O)C[C@@H]1[C@@]3(C)CC[C@H](O)C(C)(C)[C@@H]3CC[C@]12C` [PPD, 20(S)-protopanaxadiol], the Vmax came to 0.32 ± 0.01 nmol/min/mg Protein in series [2] (HLMs 0.5 mg protein/mL, Hill kinetics, 10–500 μM PPD, mean ± SD); 0.30 ± 0.01 nmol/min/mg Protein in series [3] (RLMs 0.5 mg protein/mL, Hill kinetics, 10–500 μM PPD, mean ± SD); 0.31 ± 0.01 nmol/min/mg Protein on human recombinant UGT1A4 [4] (recombinant UGT1A4 0.25 mg/mL, Hill kinetics, 10–500 μM PPD, mean ± SD). Moreover, the values for the S50 in series [2] (setting [9]) and in [3] (setting [10]) were 42.80 ± 0.73 µM and 20.68 ± 1.39 µM, respectively. In addition, the “n (Hill coefficient)” value in [2] (setting [9]) stood at 2.12 ± 0.24; in series [3] (setting [10]), 2.50 ± 0.48; at human recombinant UGT1A4 [4] (recombinant UGT1A4, Hill kinetics, 10–500 μM PPD), 2.34 ± 0.23. In addition, the CLmax is on record as 3.70 ± 0.01 μL/min/mg Protein in series [2] (HLMs, calculated by Equation (2)); 7.36 ± 0.27 μL/min/mg Protein in [3] (RLMs, calculated by Equation (2)); 8.39 ± 0.79 μL/min/mg Protein at human recombinant UGT1A4 [4] (recombinant UGT1A4, calculated by Equation (2)). For the same molecule, the “catalytic activity towards PPD glucuronidation” value on human recombinant UGT1A3 (PPD 10 μM) was found to be 0.02 ± 0.004 nmol/min/mg protein; on human recombinant UGT1A3 (PPD 50 μM), 0.04 ± 0.004 nmol/min/mg protein; at human recombinant UGT1A3 (PPD 200 μM) it was 0.04 ± 0.003 nmol/min/mg protein; at human recombinant UGT1A4 [7] (PPD 10 μM) it was 0.06 ± 0.01 nmol/min/mg protein; on human recombinant UGT1A4 [7] (PPD 50 μM), 0.18 ± 0.01 nmol/min/mg protein; on human recombinant UGT1A4 [7] (PPD 200 μM), 0.35 ± 0.05 nmol/min/mg protein. The “PPD glucuronidation by other UGT isozymes (in words)” value in series [5] is on record as “did not participate in this metabolism”. Besides, the oral bioavailability in series [6] was roughly 30%.
`C[C@]12CC[C@@H](O)C[C@@H]1CC[C@@H]1[C@@H]2CC[C@]2(C)C(=O)CC[C@@H]12` [androsterone]: the “inhibition” value in series [1] (pooled HLMs 0.5 mg/mL) is on record as “weak inhibition”.
With `C[C@]12CC[C@@H]3c4ccc(O)cc4CC[C@H]3[C@@H]1CC[C@@H]2O` [estradiol], in series [1] (pooled HLMs 0.5 mg/mL), the “inhibition” value is reported as “weak inhibition”.
As to hecogenin, inhibition in [1] (pooled HLMs, hecogenin 1–400 μM) was half-maximal at 21.3 ± 4.31 µM (IC50). In addition, the “inhibition” value in [1] (pooled HLMs 0.5 mg/mL) is given as “concentration-dependent inhibitory effect”. Further, in [1] (inhibitor at 50 µM, pooled HLMs 0.5 mg/mL), the “inhibitory effect on PPD glucuronidation compared with the solvent control” value is “more than 60%”.

B1: human recombinant UGT 1A4 (Homo sapiens) (protein)
chain: T1 sequence (P22310 29-534)
notes: purchased BD Gentest
On to B1, for which, in [8], the K0.5 was determined as 18.49 ± 1.85 µM and the Vmax turned out to be 0.00031 µmol/min/mg.
